Experimental data from PubChem BioAssay (NCI).
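1) Cells in 96-well plates. 2) Compound, 48 h, 5 concentrations. 3) Linear interpolation between surrounding doses. 4) Unreached endpoint = highest concentration. GI50 marks 50% less growth. TGI: total growth inhibition.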

Key:
Assay in all cases: inhibition of tumour cell growth, NCI panel, 48 h
HL-60(TB) leukemia = system: HL-60(TB) leukemia
SK-MEL-2 melanoma = system: SK-MEL-2 melanoma
K-562 leukemia = system: K-562 leukemia
CCRF-CEM leukemia = system: CCRF-CEM leukemia
SF-295 CNS = system: SF-295 CNS
SF-539 CNS = system: SF-539 CNS
IGROV1 ovarian = system: IGROV1 ovarian
KM12 colon = system: KM12 colon
U251 CNS = system: U251 CNS
UACC-62 melanoma = system: UACC-62 melanoma

SMILES	GI50 (HL-60(TB) leukemia) [µM]	TGI (HL-60(TB) leukemia) [µM]	GI50 (SK-MEL-2 melanoma) [µM]	TGI (SK-MEL-2 melanoma) [µM]	GI50 (K-562 leukemia) [µM]	TGI (K-562 leukemia) [µM]	GI50 (CCRF-CEM leukemia) [µM]	TGI (CCRF-CEM leukemia) [µM]	GI50 (SF-295 CNS) [µM]	TGI (SF-295 CNS) [µM]	GI50 (SF-539 CNS) [µM]	TGI (SF-539 CNS) [µM]	GI50 (IGROV1 ovarian) [µM]	TGI (IGROV1 ovarian) [µM]	GI50 (KM12 colon) [µM]	TGI (KM12 colon) [µM]	GI50 (U251 CNS) [µM]	TGI (U251 CNS) [µM]	GI50 (UACC-62 melanoma) [µM]	TGI (UACC-62 melanoma) [µM]
O=C1C(Cl)=C(Nc2cccc(Cl)c2)C(=O)N1Cc1ccccc1Cl	3.15	19.6	4.33	23.1	1.87	8.91	0.457	> 100	0.476	20.9	3.8	15	12.3	73.8	10.7	49.6	2.95	11.3	3.05	12.8
CC1(c2cccc3ccccc23)OC(=O)c2ccccc21 (centres undefined)		43.4		62.6		65.8		52.3		54.5		30.2		55.3		> 100		45.7		25.6
CCC(CO)Nc1nc(NCc2ccccc2O)c2ncn(C(C)C)c2n1 (centres undefined)	2.08	4.58	1.79	5.83	0.628	16.4	2.21	9.39	2.95	8.03	3.72	28.4	1.81	5.64	3.92	> 100	4.75	> 100	2.3	12.5
CCC1(c2c(F)c(F)c(N)c(F)c2F)CCC(=O)NC1=O (centres undefined)		> 100		> 100		> 100		> 100		> 100		> 100		> 100		> 100		> 100		> 100
CC(=O)[C@@]1(O)CC[C@H]2[C@@H]3C[C@H](C)C4=CC(=O)CC[C@]4(C)[C@H]3[C@@H](O)C[C@@]21C		> 100		> 100		> 100		> 100		> 100		> 100		> 100		> 100		> 100		> 100
O=C(/C=C/c1cccnc1)NCCCCC1CCCN(C(=O)c2ccccc2)C1 (centres undefined)	44.7	> 100	5.71	> 100	< 0.01	> 100	< 0.01	> 100	< 0.0474	> 87.1	< 0.01	> 100	0.0615	> 100	< 0.0357	> 100	< 0.01	> 100	> 90.6	> 100
O=C1/C(=C/c2ccccc2)CN(C(=O)c2cccnc2)C/C1=C\c1ccccc1	2.34	11.5	6.72	20.6	0.347	> 100	0.558	6.05	1.79	4.23	2.14	6.19	2.85	9.74	0.271	0.765	0.435	2.41	2.32	5.5
N/C(=C\c1ccc(OCc2ccccc2)c(OCc2ccccc2)c1[N+](=O)[O-])C(=O)O		> 100		> 100		> 100		> 100		> 100		> 100		> 100		> 100		> 100		> 100
Nc1ncnc2c1nc(Cl)n2C1OC2COP(=O)(O)OC2C1O (centres undefined)		> 209		> 300		> 300		> 300		> 300		> 300		> 300		> 300		> 300		> 300
Cc1cc2nc(CCC(=O)O)c(=O)[nH]c2cc1C		> 100		> 100		> 100		> 100		> 100		> 100		> 100		> 100		> 100		> 100
COc1ccc2c(=O)c3ccoc3n(CC=C(C)C)c2c1		> 96.6		> 100		> 100		> 100		> 100		> 100		> 100		> 100		> 100		> 100
COc1cc2c3c(n(CCCN)c(=O)c2cc1OC)-c1cc2c(cc1/C3=C\CCN)OCO2	9.09	> 73.9	6.57	14.6	2.17	> 40.4	0.196	36.5	3.33		1.62	4.41	3.74	> 26.8	2.6	> 21.8	1.33	11	1.75	4.98
COc1ccccc1CCN=C1NC(=O)/C(=C/c2ccc3ncccc3c2)S1	4.2	14.7	6.57	13.5	1.37	> 25	5.45	23	5.86	> 21.8	4.48	15.7	4.87	19.6	3.34	> 25	4.1	24.9	6.1	> 25
O=C1C(=O)c2ccccc2C(O)=C1CC=C(Br)Br	5.37	30.4	12.2	30.9	1.33	> 100	2.7	> 100	3.29	> 100	4.17	47.3	3.91	93.8	3.14	64.9	0.976	52.7	1.57	35.9
CC(C)(O)CS(=O)(=O)Nc1ccc2c(c1)CCN(C(=O)COc1cccnc1)C2	> 100	> 100	> 100	> 100	0.0652	> 100	1.02	> 100	> 61.6	> 100	< 0.0224	> 100	> 84	> 100	0.277	> 100	> 62.7	> 100	> 100	> 100
CCCCCCCCCCCCCC(=O)CC(=O)c1c(O)cccc1O		41.7		41.4		48.2		41.6		> 100		> 100		> 100		> 100		> 100		> 100
